For assay [1], the target named is T1, Orexin receptor type 2 (Homo sapiens, UniProt O43614).
T1 sequence (O43614 whole entry): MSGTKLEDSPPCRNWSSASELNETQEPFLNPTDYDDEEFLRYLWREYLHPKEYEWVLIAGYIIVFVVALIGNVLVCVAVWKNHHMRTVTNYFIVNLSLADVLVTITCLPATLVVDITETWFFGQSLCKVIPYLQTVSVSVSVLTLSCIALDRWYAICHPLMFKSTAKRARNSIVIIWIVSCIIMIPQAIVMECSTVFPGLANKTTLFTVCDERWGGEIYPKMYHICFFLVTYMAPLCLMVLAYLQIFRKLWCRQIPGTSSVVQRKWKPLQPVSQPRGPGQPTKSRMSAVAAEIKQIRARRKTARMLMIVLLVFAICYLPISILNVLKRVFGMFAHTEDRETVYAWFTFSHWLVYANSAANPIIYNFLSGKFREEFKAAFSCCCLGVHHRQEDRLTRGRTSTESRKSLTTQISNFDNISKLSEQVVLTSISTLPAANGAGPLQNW
Description: (§1) FLIPR Assay : FLIPR assay using orexin receptor.

The target in assay [2] is T2, Orexin/Hypocretin receptor type 1 (Homo sapiens, UniProt O43613).
T2 sequence (O43613 whole entry): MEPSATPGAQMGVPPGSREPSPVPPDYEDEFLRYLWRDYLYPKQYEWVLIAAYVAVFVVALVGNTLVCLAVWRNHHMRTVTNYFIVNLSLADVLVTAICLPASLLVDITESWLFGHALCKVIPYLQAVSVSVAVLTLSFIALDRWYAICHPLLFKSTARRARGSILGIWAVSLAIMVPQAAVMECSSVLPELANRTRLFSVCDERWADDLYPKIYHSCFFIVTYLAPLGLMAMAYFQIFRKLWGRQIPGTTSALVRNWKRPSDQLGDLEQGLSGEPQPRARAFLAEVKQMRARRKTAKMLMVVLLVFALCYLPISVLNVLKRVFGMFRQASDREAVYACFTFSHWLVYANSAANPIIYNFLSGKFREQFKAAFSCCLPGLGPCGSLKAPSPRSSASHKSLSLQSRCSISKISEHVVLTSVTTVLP
Described as §1.

Assay [3] deals with T1, Orexin receptor type 2. In words: (§2) Radioligand Binding Assay : Radioligand binding assay using orexin receptor.
Assay [4] has as its target T2, Orexin/Hypocretin receptor type 1. The assay is described as §2.

Structures are written as SMILES.

On to `O=C1N(Cc2cccc3ccccc23)CCCC12CCN(c1nc3ccccc3[nH]1)CC2`, for which the figures for the Ki (at Orexin receptor type 2 [1]; in assay [2]) were 0.126 µM and 2.46 µM, respectively. Also, the figures for the Kd (on Orexin receptor type 2 [3]; in assay [4]) were 0.755 µM and over 10 µM, respectively.
For `Cn1c(N2CCC3(CCCN(Cc4ccccc4)C3=O)CC2)nc2ccccc21`, the Kd (on Orexin receptor type 2 [3]; in assay [4]) was over 10 µM each time.
For `O=C1N(Cc2cc(Cl)cc3c2OCOC3)CCCC12CCN(c1cnc3ccccc3n1)CC2`, the Ki on Orexin receptor type 2 [1] stood at 0.739 µM; in assay [2], 1.54 µM.

The record behind these values is ChEMBL document CHEMBL3638614, “Diaza-spiro[5.5]undecanes” (2013).
